Measured values as given in the NIST ThermoML archive (doi:10.1021/je100522z).
“And” between values parts separate entries of the source, which are not always exact repeats. Equal entries are not always repeated. Numbers after ± are expanded uncertainties.

How the values were obtained:
[1] = 101.33 kPa, Liquid
[2] = molar heat capacity at constant pressure; settings: 101.33 kPa, Liquid, Small sample (50 mg) DSC
[3] = excess molar enthalpy (molar enthalpy of mixing); xn = mol fraction of the nth substance listed; settings: 101.3 kPa, Liquid, Calvet calorimetry

CCCC[P+](CC)(CCCC)CCCC.CCOP(=O)([O-])OCC [tributylethylphosphonium diethylphosphate]
Settings | mass density, [1] [kg/m3] | molar heat capacity at constant pressure, [2] [J/K/mol]
283.15 K | – | 683 ± 55
293.15 K | 1010.74 ± 0.48 | 706 ± 57
298.15 K | 1007.43 ± 0.47 | –
303.15 K | 1004.1 ± 0.5 | 716 ± 58
313.15 K | 997.42 ± 0.45 | 728 ± 59
323.15 K | 990.87 ± 0.47 | 739 ± 60
333.15 K | 984.33 ± 0.49 | 753 ± 61
343.15 K | 977.79 ± 0.51 | 768 ± 62

CCCCCCn1cc[n+](C)c1.O=S(=O)([O-])C(F)(F)F [1-hexyl-3-methylimidazolium trifluoromethanesulfonate] + O
[3]
Settings | excess molar enthalpy
313.12 K, x2 = 0.3964 | 0.325 ± 0.0131 kcal/mol
313.12 K, x2 = 0.3978 | 0.325 ± 0.0131 kcal/mol
313.12 K, x2 = 0.6294 | 0.387 ± 0.0158 kcal/mol
313.12 K, x2 = 0.6334 | 0.387 ± 0.0158 kcal/mol
313.12 K, x2 = 0.8633 | 0.174 kcal/mol and 0.172 kcal/mol
333.12 K, x2 = 0.3946 | 0.354 ± 0.0143 kcal/mol
333.12 K, x2 = 0.3993 | 0.359 ± 0.0146 kcal/mol
333.12 K, x2 = 0.6304 | 0.449 ± 0.0182 kcal/mol
333.12 K, x2 = 0.8633 | 0.239 ± 0.0098 kcal/mol
348.13 K, x2 = 0.3956 | 0.378 ± 0.0153 kcal/mol
348.13 K, x2 = 0.3977 | 0.382 ± 0.0155 kcal/mol
348.13 K, x2 = 0.6302 | 0.504 ± 0.0206 kcal/mol
348.13 K, x2 = 0.635 | 0.504 ± 0.0206 kcal/mol
348.13 K, x2 = 0.8633 | 0.289 ± 0.0117 kcal/mol

CCn1cc[n+](C)c1.N#C[S-] [1-ethyl-3-methylimidazolium thiocyanate] + O
[3]
Settings | excess molar enthalpy [kcal/mol]
313.14 K, x2 = 0.1503 | -0.059 ± 0.00239
313.14 K, x2 = 0.2483 | -0.0865 ± 0.00359
313.14 K, x2 = 0.2501 | -0.0868 ± 0.00359
313.14 K, x2 = 0.498 | -0.101 ± 0.00406
313.14 K, x2 = 0.4996 | -0.101 ± 0.00406
313.14 K, x2 = 0.7488 | -0.0261 ± 0.0012
313.14 K, x2 = 0.7493 | -0.0258 ± 0.0012
313.14 K, x2 = 0.8994 | 0.0433 ± 0.00191
313.14 K, x2 = 0.8996 | 0.043 ± 0.00167
333.14 K, x2 = 0.1477 | -0.0614 ± 0.00263
333.14 K, x2 = 0.1479 | -0.0609 ± 0.00263
333.14 K, x2 = 0.25 | -0.0887 ± 0.00359
333.14 K, x2 = 0.2506 | -0.0889 ± 0.00359
333.14 K, x2 = 0.5014 | -0.0939 ± 0.00382
333.14 K, x2 = 0.5016 | -0.0942 ± 0.00382
333.14 K, x2 = 0.6521 | -0.0483 ± 0.00191
333.14 K, x2 = 0.6524 | -0.0483 ± 0.00191
333.14 K, x2 = 0.8965 | 0.0619 ± 0.00263
333.14 K, x2 = 0.898 | 0.0621 ± 0.00263
348.13 K, x2 = 0.1467 | -0.0629 ± 0.00263
348.13 K, x2 = 0.1516 | -0.0652 ± 0.00263
348.13 K, x2 = 0.2472 | -0.0884 ± 0.00359
348.13 K, x2 = 0.251 | -0.0877 ± 0.00359
348.13 K, x2 = 0.499 | -0.087 ± 0.00359
348.13 K, x2 = 0.4992 | -0.0868 ± 0.00359
348.13 K, x2 = 0.6015 | -0.0552 ± 0.00239
348.13 K, x2 = 0.6029 | -0.0545 ± 0.00215
348.13 K, x2 = 0.8992 | 0.082 ± 0.00335
348.13 K, x2 = 0.8993 | 0.082 ± 0.00335

CCn1cc[n+](C)c1.O=S(=O)([O-])O [1-ethyl-3-methylimidazolium hydrogen sulfate]
Settings | mass density, [1] [kg/m3] | molar heat capacity at constant pressure, [2] [J/K/mol]
283.15 K | – | 290 ± 24
293.15 K | 1369.28 ± 2.9 | 294 ± 24
298.15 K | 1365.79 ± 2.9 | –
303.15 K | 1362.63 ± 2.9 | 297 ± 24
313.15 K | 1356.27 ± 2.9 | 302 ± 25
323.15 K | 1350.14 ± 2.8 | 306 ± 25
333.15 K | 1344.38 ± 2.8 | 313 ± 25
343.15 K | 1338.46 ± 2.8 | 324 ± 26

CCCC[P+](CC)(CCCC)CCCC.CCOP(=O)([O-])OCC [tributylethylphosphonium diethylphosphate] + O
[3]
Settings | excess molar enthalpy [kcal/mol]
313.11 K, x2 = 0.2619 | -0.315 ± 0.0129
313.11 K, x2 = 0.2622 | -0.318 ± 0.0129
313.11 K, x2 = 0.5134 | -0.619 ± 0.0239
313.11 K, x2 = 0.5174 | -0.624 ± 0.0263
313.11 K, x2 = 0.762 | -0.696 ± 0.0287
313.11 K, x2 = 0.7628 | -0.696 ± 0.0287
333.11 K, x2 = 0.2606 | -0.284 ± 0.0115
333.11 K, x2 = 0.2633 | -0.289 ± 0.0117
333.11 K, x2 = 0.5116 | -0.552 ± 0.0225
333.11 K, x2 = 0.5118 | -0.554 ± 0.0225
333.11 K, x2 = 0.7594 | -0.619 ± 0.0239
333.11 K, x2 = 0.7601 | -0.621 ± 0.0263
348.11 K, x2 = 0.2623 | -0.27 ± 0.011
348.11 K, x2 = 0.2642 | -0.272 ± 0.011
348.11 K, x2 = 0.5185 | -0.511 ± 0.0208
348.11 K, x2 = 0.5213 | -0.514 ± 0.0208
348.11 K, x2 = 0.7613 | -0.554 ± 0.0225
348.11 K, x2 = 0.7635 | -0.554 ± 0.0225

CCn1cc[n+](C)c1.COS(=O)(=O)[O-] [1-ethyl-3-methylimidazolium methylsulfate]
Settings | mass density, [1] [kg/m3] | molar heat capacity at constant pressure, [2] [J/K/mol]
283.15 K | – | 324 ± 26
293.15 K | 1291.15 ± 1.5 | 330 ± 27
298.15 K | 1287.75 ± 1.5 | –
303.15 K | 1284.37 ± 1.5 | 332 ± 27
313.15 K | 1277.61 ± 1.5 | 337 ± 27
323.15 K | 1270.87 ± 1.4 | 343 ± 28
333.15 K | 1264.22 ± 1.4 | 347 ± 28
343.15 K | 1257.72 ± 1.4 | 354 ± 29

CCn1cc[n+](C)c1.CS(=O)(=O)[O-] [1-ethyl-3-methylimidazolium methanesulfonate]
Settings | mass density, [1] [kg/m3] | molar heat capacity at constant pressure, [2] [J/K/mol]
283.15 K | – | 327 ± 27
293.15 K | 1247.31 ± 1.3 | 327 ± 27
298.15 K | 1243.83 ± 1.3 | –
303.15 K | 1240.45 ± 1.3 | 330 ± 27
313.15 K | 1233.48 ± 1.3 | 334 ± 27
323.15 K | 1227.03 ± 1.3 | 339 ± 28
333.15 K | 1220.33 ± 1.2 | 344 ± 28
343.15 K | 1213.79 ± 1.2 | 350 ± 28

C[n+]1ccn(CCO)c1.O=C([O-])C(F)(F)F
Settings | mass density, [1] [kg/m3] | molar heat capacity at constant pressure, [2] [J/K/mol]
283.15 K | – | 362 ± 29
293.15 K | 1370.39 ± 1.8 | 367 ± 30
298.15 K | 1366.36 ± 1.8 | –
303.15 K | 1362.51 ± 1.8 | 371 ± 30
313.15 K | 1354.8 ± 1.7 | 376 ± 31
323.15 K | 1346.98 ± 1.7 | 381 ± 31
333.15 K | 1339.46 ± 1.7 | 387 ± 31
343.15 K | 1331.98 ± 1.7 | 394 ± 32

CCCCCCn1cc[n+](C)c1.O=S(=O)([O-])C(F)(F)F [1-hexyl-3-methylimidazolium trifluoromethanesulfonate]
[2]
Settings | molar heat capacity at constant pressure [J/K/mol]
283.15 K | 484 ± 39
293.15 K | 493 ± 40
303.15 K | 500 ± 41
313.15 K | 506 ± 41
323.15 K | 513 ± 42
333.15 K | 516 ± 42
343.15 K | 522 ± 42

CCOP(=O)([O-])OCC.CCn1cc[n+](C)c1 [1-ethyl-3-methylimidazolium diethyl phosphate] + O
[3]
Settings | excess molar enthalpy [kcal/mol]
313.13 K, x2 = 0.2497 | -0.813 ± 0.0335
313.13 K, x2 = 0.2506 | -0.815 ± 0.0335
313.13 K, x2 = 0.5025 | -1.34 ± 0.055
313.13 K, x2 = 0.5036 | -1.34 ± 0.055
313.13 K, x2 = 0.7514 | -1.25 ± 0.0502
313.13 K, x2 = 0.7538 | -1.25 ± 0.0502
333.13 K, x2 = 0.2456 | -0.786 ± 0.0311
333.13 K, x2 = 0.2473 | -0.786 ± 0.0311
333.13 K, x2 = 0.4977 | -1.31 ± 0.0526
333.13 K, x2 = 0.508 | -1.32 ± 0.055
333.13 K, x2 = 0.7491 | -1.23 ± 0.0502
333.13 K, x2 = 0.7512 | -1.22 ± 0.0502
348.12 K, x2 = 0.2452 | -0.779 ± 0.0311
348.12 K, x2 = 0.2477 | -0.796 ± 0.0335
348.12 K, x2 = 0.4992 | -1.29 ± 0.0526
348.12 K, x2 = 0.4996 | -1.29 ± 0.0526
348.12 K, x2 = 0.7481 | -1.19 ± 0.0478
348.12 K, x2 = 0.7485 | -1.18 ± 0.0478

CCOP(=O)([O-])OCC.CCn1cc[n+](C)c1 [1-ethyl-3-methylimidazolium diethyl phosphate]
Settings | mass density, [1] [kg/m3] | molar heat capacity at constant pressure, [2] [J/K/mol]
283.15 K | – | 517 ± 42
293.15 K | 1148.92 ± 0.98 | 528 ± 43
298.15 K | 1145.47 ± 0.97 | –
303.15 K | 1142.03 ± 0.96 | 533 ± 43
313.15 K | 1135.19 ± 0.94 | 540 ± 44
323.15 K | 1128.57 ± 0.91 | 545 ± 44
333.15 K | 1121.94 ± 0.89 | 547 ± 44
343.15 K | 1115.36 ± 0.86 | 557 ± 45

CCn1cc[n+](C)c1.N#C[S-] [1-ethyl-3-methylimidazolium thiocyanate]
Settings | mass density, [1] [kg/m3] | molar heat capacity at constant pressure, [2] [J/K/mol]
283.15 K | – | 285 ± 23
293.15 K | 1119.02 ± 0.88 | 287 ± 23
298.15 K | 1115.96 ± 0.86 | –
303.15 K | 1112.91 ± 0.85 | 288 ± 23
313.15 K | 1106.85 ± 0.83 | 290 ± 24
323.15 K | 1100.85 ± 0.81 | 293 ± 24
333.15 K | 1094.91 ± 0.79 | 296 ± 24
343.15 K | 1089.06 ± 0.77 | 300 ± 24
